Among the data in patent US20030055263A1, “Carboxylic acid derivatives, medicaments comprising these compounds, their use and processes for their production” (Boehringer Ingelheim Pharma KG, priority 2001, published 2003) are IC50 values, retold here.

The structures appear in SMILES notation.

This assay deals with T1, telomerase in nuclear extracts from HeLa cells (Homo sapiens, UniProt O14746).
T1 construct: The activity of telomerase in nuclear extracts from HeLa cells; endogenous in cells; host or cells: HeLa-S3 (ATCC CCL-2.2) nuclear extract
The assay can be described thus: Telomerase test in nuclear extracts from HeLa cells (method of Morin). The assay is classed as biochemical. The following applies: HeLa nuclear extract, 120 minutes at 30° C., inhibitor 1 nM to 100 μM, 32P-dGTP incorporation quantified by Phospho-Imager. How it is done: 1. Preparation of nuclear extracts from HeLa cells: Nuclear extracts were prepared according to Dignam (Dignam et al. in Nucleic Acids Res. 11, 1475-1489 (1983)). All the steps were carried out at 4° C., all the equipment and solutions were pre-cooled to 4° C. At least 1×10^9 HeLa-S3 cells growing in suspension culture (ATCC catalogue number CCL-2.2) were harvested by centrifuging for 5 minutes at 1000×g and washed once with PBS buffer ([…]; 2.7 mM KCl; 8.1 mM Na2HPO4; 1.5 mM KH2PO4) . After the cell volume had been determined, the cells were suspended in 5 times the volume of hypotonic buffer (10 mM HEPES/KOH, pH 7.8; 10 mM KCl; 1.5 mM MgCl2) and then left for 10 minutes at 4° C. After centrifuging for 5 minutes at 1000×g the cell pellet was suspended in twice the volume of hypotonic buffer in the presence of 1 mM DTE and 1 mM PMSF and broken up with a Dounce homogeniser. The homogenised material was made isotonic with 0.1 volume of 10-fold saline buffer (300 mM HEPES/KOH, pH 7.8; 1.4 M KCl; 30 mM MgCl2). The cell nuclei were separated from the ingredients of the cytoplasm by centrifuging and then suspended in twice the volume of nuclear extraction buffer (20 mM HEPES/KOH, pH 7.9; 420 mM KCl; 1.5 mM MgCl2; 0.2 mM EDTA; 0.5 mM DTE; 25% glycerol). The nuclei were broken up using a Dounce homogeniser and incubated for 30 minutes at 4° C. with gentle stirring. Any insoluble ingredients were removed by centrifuging for 30 minutes at 10.000 rpm (SS-34 Rotor). Then the nuclear extract was dialysed for 4-5 hours against AM-100 buffer (20 mM tris/HCl, pH 7.9; 100 mM KCl; 0.1 mM EDTA; 0.5 mM DTE; 20% glycerol). The nuclear extracts obtained were frozen in liquid nitrogen and stored at −80° C.
2. Telomerase test: The activity of telomerase in nuclear extracts from HeLa cells was determined using the method described by Morin (Morin in Cell 59. 521-529 (1989)). […] If the inhibition constant of potential telomerase inhibitors was to be determined, these were also added to the telomerase reaction in a concentration range of from 1 nM to 100 μM. […]

T1 sequence (O14746 whole entry): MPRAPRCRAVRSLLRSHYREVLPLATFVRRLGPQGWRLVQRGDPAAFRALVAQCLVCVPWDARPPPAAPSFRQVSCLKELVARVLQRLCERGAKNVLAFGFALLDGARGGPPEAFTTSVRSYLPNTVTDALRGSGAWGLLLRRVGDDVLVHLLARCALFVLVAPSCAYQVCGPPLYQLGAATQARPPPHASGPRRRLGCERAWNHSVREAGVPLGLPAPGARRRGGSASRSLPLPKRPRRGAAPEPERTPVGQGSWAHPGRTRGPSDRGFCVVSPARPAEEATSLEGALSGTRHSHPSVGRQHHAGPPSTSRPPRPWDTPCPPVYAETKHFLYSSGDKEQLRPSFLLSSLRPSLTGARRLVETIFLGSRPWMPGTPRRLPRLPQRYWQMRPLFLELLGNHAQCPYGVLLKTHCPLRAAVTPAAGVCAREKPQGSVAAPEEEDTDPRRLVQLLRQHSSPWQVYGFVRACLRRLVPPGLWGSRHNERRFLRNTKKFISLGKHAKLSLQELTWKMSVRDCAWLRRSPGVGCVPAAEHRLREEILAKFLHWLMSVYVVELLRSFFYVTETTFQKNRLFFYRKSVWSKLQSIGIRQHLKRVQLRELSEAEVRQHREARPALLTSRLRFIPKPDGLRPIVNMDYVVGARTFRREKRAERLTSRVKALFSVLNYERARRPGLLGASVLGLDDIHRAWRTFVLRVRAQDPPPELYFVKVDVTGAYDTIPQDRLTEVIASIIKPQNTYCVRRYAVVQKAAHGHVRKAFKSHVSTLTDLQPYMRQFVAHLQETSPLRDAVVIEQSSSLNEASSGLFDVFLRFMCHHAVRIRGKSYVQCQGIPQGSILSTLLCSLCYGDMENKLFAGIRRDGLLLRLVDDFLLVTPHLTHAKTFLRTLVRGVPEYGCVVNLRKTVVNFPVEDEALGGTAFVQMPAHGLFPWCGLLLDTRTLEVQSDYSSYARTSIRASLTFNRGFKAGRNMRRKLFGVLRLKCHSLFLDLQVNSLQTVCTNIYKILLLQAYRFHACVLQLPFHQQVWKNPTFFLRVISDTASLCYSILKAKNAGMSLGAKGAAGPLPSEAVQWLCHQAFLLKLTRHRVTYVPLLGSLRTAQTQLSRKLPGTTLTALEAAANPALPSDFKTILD
T1 sequence (O60832 whole entry partner): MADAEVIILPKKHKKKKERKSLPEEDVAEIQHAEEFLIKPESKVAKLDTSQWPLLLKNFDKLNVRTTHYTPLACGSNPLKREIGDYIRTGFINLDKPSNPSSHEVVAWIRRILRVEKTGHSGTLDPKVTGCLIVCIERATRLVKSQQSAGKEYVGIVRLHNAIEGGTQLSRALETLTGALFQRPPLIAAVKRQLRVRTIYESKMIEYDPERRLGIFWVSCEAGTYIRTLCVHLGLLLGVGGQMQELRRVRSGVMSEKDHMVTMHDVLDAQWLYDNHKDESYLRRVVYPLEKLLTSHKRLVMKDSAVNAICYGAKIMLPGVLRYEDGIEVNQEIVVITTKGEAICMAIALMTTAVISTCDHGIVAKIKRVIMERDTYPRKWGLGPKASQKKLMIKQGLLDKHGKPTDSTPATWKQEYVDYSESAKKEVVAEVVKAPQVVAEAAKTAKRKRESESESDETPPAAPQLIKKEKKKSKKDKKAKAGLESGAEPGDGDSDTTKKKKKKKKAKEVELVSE
T1 sequence (Q9NX24 whole entry partner): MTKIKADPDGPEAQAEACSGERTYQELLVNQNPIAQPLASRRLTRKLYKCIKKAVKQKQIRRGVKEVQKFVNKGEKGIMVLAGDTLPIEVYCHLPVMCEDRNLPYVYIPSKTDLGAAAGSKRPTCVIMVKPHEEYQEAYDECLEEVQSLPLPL
T1 sequence (Q9NPE3 whole entry partner): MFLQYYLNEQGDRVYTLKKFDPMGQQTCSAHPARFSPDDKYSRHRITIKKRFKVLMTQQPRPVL
T1 sequence (Q9NY12 whole entry partner): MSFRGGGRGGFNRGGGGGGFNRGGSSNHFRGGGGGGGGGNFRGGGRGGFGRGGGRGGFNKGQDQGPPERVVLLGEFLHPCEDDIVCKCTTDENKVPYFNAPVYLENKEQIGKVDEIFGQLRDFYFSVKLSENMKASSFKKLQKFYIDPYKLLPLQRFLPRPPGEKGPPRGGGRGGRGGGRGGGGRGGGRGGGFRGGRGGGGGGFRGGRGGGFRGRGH
T1 sequence (Q9BUR4 whole entry partner): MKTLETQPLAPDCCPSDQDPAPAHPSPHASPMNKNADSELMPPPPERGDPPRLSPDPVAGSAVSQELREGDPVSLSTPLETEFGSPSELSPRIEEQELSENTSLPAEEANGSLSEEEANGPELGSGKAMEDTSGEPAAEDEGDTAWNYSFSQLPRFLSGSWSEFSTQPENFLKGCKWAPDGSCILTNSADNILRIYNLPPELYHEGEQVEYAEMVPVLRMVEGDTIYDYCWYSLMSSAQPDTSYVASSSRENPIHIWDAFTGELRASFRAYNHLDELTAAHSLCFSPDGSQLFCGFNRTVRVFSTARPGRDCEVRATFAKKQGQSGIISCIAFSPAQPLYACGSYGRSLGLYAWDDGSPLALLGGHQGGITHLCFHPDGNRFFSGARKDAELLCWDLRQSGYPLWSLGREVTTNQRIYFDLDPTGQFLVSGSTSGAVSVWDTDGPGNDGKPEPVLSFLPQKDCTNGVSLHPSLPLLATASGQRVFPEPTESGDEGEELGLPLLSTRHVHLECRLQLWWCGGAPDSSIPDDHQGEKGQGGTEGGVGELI

As usually defined, the IC50 is the concentration needed to halve the response being measured. A higher IC50 goes with weaker potency in that assay. Regarding `O=C(O)c1ccccc1C(=O)Nc1nc(-c2ccc3ccccc3c2)cs1` [Example 3, 2-[4-(naphthalin-2-yl)-thiazol-2-ylaminocarbonyl]-benzoic acid], the IC50 is less than 5000 nM.

Molecule `O=C(O)C1=C(C(=O)Nc2nc(-c3ccc4ccccc4c3)cs2)CCC1` [Example 35, 2-[4-(naphthalin-2-yl)-thiazol-2-ylaminocarbonyl]-cyclopent-1-ene-carboxylic acid] gave an IC50 of less than 1000 nM.

As to `O=C(O)c1ccccc1Nc1nccc(-c2ccc3ccccc3c2)n1` [Example 50, 2-[4-(naphthalin-2-yl)-pyrimidin-2-ylamino]-benzoic acid], the half-inhibitory concentration (IC50) was less than 1000 nM.
